Assay [1] concerns the target T1, 5-hydroxytryptamine receptor 1A (Homo sapiens, UniProt P08908).
T1 sequence (P08908 whole entry): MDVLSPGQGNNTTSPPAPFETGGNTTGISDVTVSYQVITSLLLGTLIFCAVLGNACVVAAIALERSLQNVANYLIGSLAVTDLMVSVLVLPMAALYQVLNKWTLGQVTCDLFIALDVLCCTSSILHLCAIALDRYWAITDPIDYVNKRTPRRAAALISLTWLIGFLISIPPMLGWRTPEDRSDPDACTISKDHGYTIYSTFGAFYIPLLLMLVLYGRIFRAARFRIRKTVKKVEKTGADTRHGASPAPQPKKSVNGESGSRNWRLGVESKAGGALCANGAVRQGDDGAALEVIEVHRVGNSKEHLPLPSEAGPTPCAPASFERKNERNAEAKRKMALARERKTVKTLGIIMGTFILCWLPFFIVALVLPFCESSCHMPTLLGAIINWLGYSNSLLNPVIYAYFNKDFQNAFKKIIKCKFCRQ
In words: Displacement of [3H]-8-OH-DPAT from human recombinant 5-HT1A receptor expressed in HEK293 cell membrane after 1 hr by Microbeta scintillation counting analysis. Type of assay: cell membranes. (Loss of bound radioactivity is the signal in a displacement assay; it reports binding, not function.)

In assay [2] the target is T2, Adrenergic receptor alpha-1 (Rattus norvegicus, UniProt P15823+P23944+P43140).
T2 sequence (P15823 whole entry): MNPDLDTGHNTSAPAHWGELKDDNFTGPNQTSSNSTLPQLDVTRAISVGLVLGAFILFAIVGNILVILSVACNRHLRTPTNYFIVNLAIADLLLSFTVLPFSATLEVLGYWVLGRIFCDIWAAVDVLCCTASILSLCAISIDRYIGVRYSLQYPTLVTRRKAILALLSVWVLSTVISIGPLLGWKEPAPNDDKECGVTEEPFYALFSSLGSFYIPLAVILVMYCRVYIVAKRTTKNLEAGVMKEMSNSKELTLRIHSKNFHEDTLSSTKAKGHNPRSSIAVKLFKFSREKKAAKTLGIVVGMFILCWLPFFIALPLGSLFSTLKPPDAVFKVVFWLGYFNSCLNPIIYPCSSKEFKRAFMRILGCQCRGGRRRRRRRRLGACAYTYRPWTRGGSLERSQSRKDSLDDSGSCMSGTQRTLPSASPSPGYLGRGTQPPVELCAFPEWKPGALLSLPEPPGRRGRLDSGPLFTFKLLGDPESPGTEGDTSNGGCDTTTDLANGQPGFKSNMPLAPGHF
T2 sequence (P23944 whole entry): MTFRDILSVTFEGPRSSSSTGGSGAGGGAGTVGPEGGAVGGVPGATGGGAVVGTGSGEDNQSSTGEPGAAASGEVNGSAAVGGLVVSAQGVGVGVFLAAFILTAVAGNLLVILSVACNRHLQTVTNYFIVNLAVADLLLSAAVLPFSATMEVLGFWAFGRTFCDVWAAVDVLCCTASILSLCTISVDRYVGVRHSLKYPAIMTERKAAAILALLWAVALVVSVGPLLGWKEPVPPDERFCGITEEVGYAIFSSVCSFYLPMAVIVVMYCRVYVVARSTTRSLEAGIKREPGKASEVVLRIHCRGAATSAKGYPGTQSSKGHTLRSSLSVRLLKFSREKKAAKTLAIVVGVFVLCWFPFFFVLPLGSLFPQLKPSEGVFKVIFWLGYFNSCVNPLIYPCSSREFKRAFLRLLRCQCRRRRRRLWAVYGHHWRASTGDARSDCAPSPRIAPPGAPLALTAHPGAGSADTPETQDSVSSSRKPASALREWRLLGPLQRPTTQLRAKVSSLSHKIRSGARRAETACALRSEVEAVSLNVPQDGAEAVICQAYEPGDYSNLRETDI
T2 sequence (P43140 whole entry): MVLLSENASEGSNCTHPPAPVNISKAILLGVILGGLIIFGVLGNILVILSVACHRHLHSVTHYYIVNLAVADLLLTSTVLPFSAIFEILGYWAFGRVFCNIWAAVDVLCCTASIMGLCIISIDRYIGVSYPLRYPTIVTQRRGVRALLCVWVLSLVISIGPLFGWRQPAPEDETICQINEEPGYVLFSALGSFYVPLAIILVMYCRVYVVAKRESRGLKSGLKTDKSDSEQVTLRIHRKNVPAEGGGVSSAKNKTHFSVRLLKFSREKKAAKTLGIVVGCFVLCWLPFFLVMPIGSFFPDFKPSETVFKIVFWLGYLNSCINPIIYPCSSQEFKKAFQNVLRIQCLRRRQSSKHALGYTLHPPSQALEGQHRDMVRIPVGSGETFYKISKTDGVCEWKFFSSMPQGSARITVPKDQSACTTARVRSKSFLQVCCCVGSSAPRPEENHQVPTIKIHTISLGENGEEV
Description: Displacement of [3H]prazosin from alpha1 adrenergic receptor in rat cerebral cortex after 30 mins by Microbeta scintillation counting analysis. In kind it is tissue-based.

The target in assay [3] is T3, Alpha-1A adrenergic receptor (Rattus norvegicus, UniProt P43140).
T3 sequence (P43140 whole entry): T2 sequence (P43140 whole entry)
In words: Antagonist activity at alpha1A adrenoceptor in Wistar (Krf:(WI) WU) rat endothelium-denuded tail artery assessed as inhibition of noradrenaline-induced contraction after 30 mins. Conditions: read-out: pA2 (converted).

Assay [4] deals with T4, Alpha-1B adrenergic receptor (Mus musculus, UniProt P97717).
T4 sequence (P97717 whole entry): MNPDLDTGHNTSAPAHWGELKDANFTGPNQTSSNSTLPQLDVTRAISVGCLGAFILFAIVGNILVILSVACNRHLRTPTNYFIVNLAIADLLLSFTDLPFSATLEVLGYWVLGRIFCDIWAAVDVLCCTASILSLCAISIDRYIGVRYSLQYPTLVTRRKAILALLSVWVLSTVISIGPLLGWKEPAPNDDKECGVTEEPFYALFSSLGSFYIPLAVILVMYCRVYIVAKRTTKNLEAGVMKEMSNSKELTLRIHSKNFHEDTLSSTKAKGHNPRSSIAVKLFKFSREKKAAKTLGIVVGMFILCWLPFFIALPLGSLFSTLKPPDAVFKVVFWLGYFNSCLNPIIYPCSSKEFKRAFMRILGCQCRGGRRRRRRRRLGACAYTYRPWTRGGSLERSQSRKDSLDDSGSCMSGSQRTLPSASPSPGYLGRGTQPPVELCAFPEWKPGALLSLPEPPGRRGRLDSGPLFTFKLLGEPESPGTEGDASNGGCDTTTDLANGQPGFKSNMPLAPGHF
Description: Antagonist activity at alpha1B-adrenoceptor in Albino swiss mouse spleen assessed as inhibition of noradrenaline-induced contraction after 30 mins. The conditions noted are these: read-out: pA2 (converted).

For assay [5], the target named is 5-hydroxytryptamine receptor 6 (Homo sapiens, UniProt P50406). Description: Displacement of [3H]-LSD from human recombinant 5-HT6 receptor expressed in HEK293 cell membrane after 1 hr by Microbeta scintillation counting analysis. In kind it is cell membranes.
Sequence of 5-hydroxytryptamine receptor 6 (P50406 whole entry): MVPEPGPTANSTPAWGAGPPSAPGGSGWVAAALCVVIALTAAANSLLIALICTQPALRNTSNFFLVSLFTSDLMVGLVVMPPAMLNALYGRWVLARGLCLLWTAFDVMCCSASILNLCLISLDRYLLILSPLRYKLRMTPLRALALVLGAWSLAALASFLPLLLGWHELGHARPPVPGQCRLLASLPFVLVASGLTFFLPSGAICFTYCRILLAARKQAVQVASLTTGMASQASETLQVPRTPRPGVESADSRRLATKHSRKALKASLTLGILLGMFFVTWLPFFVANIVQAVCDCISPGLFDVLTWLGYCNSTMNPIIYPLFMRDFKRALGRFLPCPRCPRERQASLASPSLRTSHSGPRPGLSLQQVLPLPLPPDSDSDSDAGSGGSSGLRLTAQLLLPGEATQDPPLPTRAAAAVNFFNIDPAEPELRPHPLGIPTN
Assay [6] concerns the target T5, Alpha-1D adrenergic receptor (Rattus norvegicus, UniProt P23944).
T5 sequence (P23944 whole entry): T2 sequence (P23944 whole entry)
Description: Antagonist activity at alpha1D adrenoceptor in Wistar (Krf:(WI) WU) rat endothelium-denuded thoracic aorta assessed as inhibition of noradrenaline-induced contraction after 30 mins. The conditions noted are these: read-out: pA2 (converted).

Assay [7] concerns the target 5-hydroxytryptamine receptor 7 (Homo sapiens, UniProt P34969). Description: Displacement of [3H]-5-CT from human recombinant 5-HT7 receptor expressed in HEK293 cell membrane after 1 hr by Microbeta scintillation counting analysis. In kind it is cell membranes.

pKi: −log10 of the molar value.

Sequence of 5-hydroxytryptamine receptor 7 (P34969 whole entry): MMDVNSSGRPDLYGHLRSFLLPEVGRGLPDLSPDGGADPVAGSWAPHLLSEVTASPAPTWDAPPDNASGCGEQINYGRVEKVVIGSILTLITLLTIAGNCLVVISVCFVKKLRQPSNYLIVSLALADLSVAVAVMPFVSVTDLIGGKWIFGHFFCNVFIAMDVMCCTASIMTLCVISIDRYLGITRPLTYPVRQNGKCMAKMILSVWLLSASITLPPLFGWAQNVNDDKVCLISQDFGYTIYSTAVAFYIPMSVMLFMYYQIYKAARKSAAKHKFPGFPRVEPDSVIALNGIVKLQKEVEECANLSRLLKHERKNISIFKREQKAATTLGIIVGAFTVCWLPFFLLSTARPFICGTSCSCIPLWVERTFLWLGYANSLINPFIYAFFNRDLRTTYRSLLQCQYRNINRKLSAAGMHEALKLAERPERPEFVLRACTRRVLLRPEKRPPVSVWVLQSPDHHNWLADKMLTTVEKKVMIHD

In the case of `CN1C(=O)N(CCCCCN2CCN(c3ccccc3)CC2)C(C)(c2ccccc2)C1=O.Cl` (stereo not drawn), the pKi (as a rule, −log10 of the Ki, conventionally taken in molar units) in assay [1] is 6.87; in assay [5], 5.02. In addition, the Ki – broadly, the dissociation constant of the complex between target and ligand, obtained from inhibition or displacement – in assay [2] turned out to be 7.3 nM. Besides, the values for the Kb in assay [3], in assay [4] and in assay [6] were 38.6 nM, 48.8 nM and 7.31 nM, respectively.

As to `CN1C(=O)N(CCCCCN2CCN(c3ccccc3F)CC2)C(C)(c2ccccc2)C1=O.Cl` (stereo not drawn), the pKi in assay [1] is 6.91; in assay [7], 6.80; in assay [5], 4.59. The compound further showed a Ki in assay [2] of 11.3 nM. Also, the results for the Kb in assay [3], in assay [4] and in assay [6] were 48.3 nM, 7.21 nM and 3.01 nM, respectively.

Source of the values: ChEMBL document CHEMBL3232706, “SAR-studies on the importance of aromatic ring topologies in search for selective 5-HT(7) receptor ligands among phenylpiperazine hydantoin derivatives” (Eur J Med Chem, 2014).
